This is an account of results in ChEMBL document CHEMBL5696442, “Discovery of type II inhibitors of TGFβ-activated kinase 1 (TAK1) and mitogen-activated protein kinase kinase kinase kinase 2 (MAP4K2)” (J Med Chem, 2015).

Assay [1] deals with Phosphatidylinositol 4-kinase beta (Homo sapiens) (UniProt Q9UBF8). As to the kind of experiment: Inhibition of PI4KB ATP labeling site harbouring VPHTQAVVLNSKDKAPYLIYVEVLECENFDTTSVPAR in human A-375 cells at 0.5 uM by KiNativ Profiling analysis relative to control. The format is cell-based.
Sequence of Phosphatidylinositol 4-kinase beta (Homo sapiens) (Q9UBF8 2-816 limits assumed): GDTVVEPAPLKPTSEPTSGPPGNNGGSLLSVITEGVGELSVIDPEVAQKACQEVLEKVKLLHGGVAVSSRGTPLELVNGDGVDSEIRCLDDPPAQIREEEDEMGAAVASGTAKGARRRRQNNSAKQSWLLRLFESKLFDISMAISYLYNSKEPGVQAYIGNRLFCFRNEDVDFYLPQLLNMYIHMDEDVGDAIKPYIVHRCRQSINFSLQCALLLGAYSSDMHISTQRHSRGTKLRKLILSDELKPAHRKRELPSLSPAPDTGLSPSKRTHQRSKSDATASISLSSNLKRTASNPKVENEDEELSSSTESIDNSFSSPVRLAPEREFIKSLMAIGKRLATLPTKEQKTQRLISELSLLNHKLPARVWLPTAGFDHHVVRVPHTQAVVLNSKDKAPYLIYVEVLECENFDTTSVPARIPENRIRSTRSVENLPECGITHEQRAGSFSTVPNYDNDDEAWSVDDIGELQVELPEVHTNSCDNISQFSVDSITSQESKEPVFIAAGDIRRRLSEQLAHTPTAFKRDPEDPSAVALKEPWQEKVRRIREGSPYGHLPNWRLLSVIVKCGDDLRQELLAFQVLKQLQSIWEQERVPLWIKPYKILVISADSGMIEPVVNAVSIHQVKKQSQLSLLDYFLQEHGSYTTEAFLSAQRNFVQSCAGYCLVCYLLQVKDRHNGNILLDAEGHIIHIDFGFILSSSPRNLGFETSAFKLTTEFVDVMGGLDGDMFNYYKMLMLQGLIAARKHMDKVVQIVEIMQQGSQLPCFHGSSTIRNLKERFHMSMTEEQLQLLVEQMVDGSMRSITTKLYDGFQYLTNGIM
In assay [2] the target is DNA-PK/Ku70/Ku85 (Homo sapiens) (UniProt P78527+P12956+P13010). Description: Inhibition of DNAPK ATP labeling site harbouring GHDEREHPFLVKGGEDLRQDQR in human A-375 cells at 0.05 uM by KiNativ Profiling analysis relative to control. Format: cell-based.
Assay [3] concerns the target Wee1-like protein kinase (Homo sapiens) (UniProt P30291). Description: Inhibition of Wee1 Lys2 labeling site in human A-375 cells at 0.05 uM by KiNativ Profiling analysis relative to control. Format: cell-based.
Assay [4] has as its target Serine/threonine-protein kinase PAK 6 (Homo sapiens) (UniProt Q9NQU5). As to the kind of experiment: Inhibition of PAK6 (unknown origin) at 1 uM by Ambit Kinomescan binding assay relative to control; values are per cent of control.
Assay [5] concerns the target Cyclin-dependent kinase-like 1 (Homo sapiens) (UniProt Q00532). As to the kind of experiment: Inhibition of CDKL1 (unknown origin) at 1 uM by Ambit Kinomescan binding assay relative to control; values are per cent of control.
For assay [6], the target named is Serine/threonine-protein kinase 4 (Homo sapiens) (UniProt Q13043). As to the kind of experiment: Inhibition of MST1 Lys1 labeling site harbouring AIHKETGQIVAIKQVPVESDLQEIIK in human A-375 cells at 0.5 uM by KiNativ Profiling analysis relative to control.
Sequence of Serine/threonine-protein kinase 4 (Homo sapiens) (Q13043 whole entry, looked up, canonical isoform): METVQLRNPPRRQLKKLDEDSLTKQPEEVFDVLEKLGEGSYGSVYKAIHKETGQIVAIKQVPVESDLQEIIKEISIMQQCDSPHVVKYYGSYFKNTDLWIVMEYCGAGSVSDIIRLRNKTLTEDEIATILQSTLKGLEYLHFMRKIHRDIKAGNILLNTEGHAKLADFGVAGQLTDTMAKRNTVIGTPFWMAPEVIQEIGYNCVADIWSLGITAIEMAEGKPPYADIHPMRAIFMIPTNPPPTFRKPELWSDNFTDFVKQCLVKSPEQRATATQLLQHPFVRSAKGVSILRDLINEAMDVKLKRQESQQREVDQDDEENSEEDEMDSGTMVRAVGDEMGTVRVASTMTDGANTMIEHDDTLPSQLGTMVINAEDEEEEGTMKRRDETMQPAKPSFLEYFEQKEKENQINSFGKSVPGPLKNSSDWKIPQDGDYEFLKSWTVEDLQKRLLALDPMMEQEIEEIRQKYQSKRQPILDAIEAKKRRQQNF
Assay [7] addresses Casein kinase I isoform epsilon (Homo sapiens) (UniProt P49674). Description: Inhibition of CSNK1E (unknown origin) at 10 uM by Ambit Kinomescan binding assay.
The target in assay [8] is Dual specificity testis-specific protein kinase 1 (Homo sapiens) (UniProt Q15569). Description: Inhibition of TESK1 (unknown origin) at 10 uM by Ambit Kinomescan binding assay.
Sequence of Dual specificity testis-specific protein kinase 1 (Homo sapiens) (Q15569 whole entry, looked up): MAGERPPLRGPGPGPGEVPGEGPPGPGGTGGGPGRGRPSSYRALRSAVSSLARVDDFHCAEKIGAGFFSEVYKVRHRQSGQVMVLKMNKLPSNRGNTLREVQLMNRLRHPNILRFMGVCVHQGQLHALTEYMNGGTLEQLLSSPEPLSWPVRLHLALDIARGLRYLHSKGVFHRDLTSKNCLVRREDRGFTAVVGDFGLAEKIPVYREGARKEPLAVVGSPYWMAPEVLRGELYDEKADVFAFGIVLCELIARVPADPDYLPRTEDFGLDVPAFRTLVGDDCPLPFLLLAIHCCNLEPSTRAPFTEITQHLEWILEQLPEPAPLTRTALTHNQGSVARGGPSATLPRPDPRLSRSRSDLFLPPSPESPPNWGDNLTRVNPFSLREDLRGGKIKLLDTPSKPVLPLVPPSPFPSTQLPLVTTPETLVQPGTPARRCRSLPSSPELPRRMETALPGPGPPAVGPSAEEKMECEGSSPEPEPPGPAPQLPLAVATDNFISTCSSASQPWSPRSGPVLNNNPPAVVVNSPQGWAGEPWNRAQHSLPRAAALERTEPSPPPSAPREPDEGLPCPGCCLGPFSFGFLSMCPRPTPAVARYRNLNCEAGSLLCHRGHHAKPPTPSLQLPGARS
Assay [9] concerns the target Serine/threonine-protein kinase 10 (Homo sapiens) (UniProt O94804). Description: Inhibition of LOK Lys1 labeling site harbouring ETGALAAAKVIETK in human A-375 cells at 5 uM by KiNativ Profiling analysis relative to control. Format: cell-based.
The target in assay [10] is T1, Kinase suppressor of Ras 1 (Homo sapiens) (UniProt Q8IVT5).
T1 sequence (whole entry): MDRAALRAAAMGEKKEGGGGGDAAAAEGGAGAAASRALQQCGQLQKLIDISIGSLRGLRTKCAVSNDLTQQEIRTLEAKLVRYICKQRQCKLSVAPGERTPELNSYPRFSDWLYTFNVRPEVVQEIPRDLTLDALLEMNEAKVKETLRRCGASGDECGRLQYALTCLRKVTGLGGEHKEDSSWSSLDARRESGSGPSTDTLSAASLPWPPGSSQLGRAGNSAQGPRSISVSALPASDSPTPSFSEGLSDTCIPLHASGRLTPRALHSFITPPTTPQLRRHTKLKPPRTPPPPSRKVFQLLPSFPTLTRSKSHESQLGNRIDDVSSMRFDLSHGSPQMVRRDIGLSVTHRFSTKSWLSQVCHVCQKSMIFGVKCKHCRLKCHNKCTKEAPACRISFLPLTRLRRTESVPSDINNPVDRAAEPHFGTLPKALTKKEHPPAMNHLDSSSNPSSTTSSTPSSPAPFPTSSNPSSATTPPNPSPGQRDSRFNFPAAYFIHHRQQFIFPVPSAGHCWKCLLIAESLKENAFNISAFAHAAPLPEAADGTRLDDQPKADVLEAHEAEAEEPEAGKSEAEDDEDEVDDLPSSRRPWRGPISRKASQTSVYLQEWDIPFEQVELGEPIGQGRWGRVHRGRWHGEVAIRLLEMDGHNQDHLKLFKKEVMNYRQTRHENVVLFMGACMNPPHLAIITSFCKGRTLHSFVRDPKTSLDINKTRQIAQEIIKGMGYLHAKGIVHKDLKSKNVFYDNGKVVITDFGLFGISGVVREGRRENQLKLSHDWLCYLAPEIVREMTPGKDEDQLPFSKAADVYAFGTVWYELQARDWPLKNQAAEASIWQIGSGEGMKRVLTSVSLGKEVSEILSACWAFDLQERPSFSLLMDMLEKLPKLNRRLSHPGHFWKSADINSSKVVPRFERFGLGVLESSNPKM
Description: Inhibition of KSR1 ACT labeling site harbouring SKNVFYDNGKVVITDFGLFGISGVVR in human A-375 cells at 0.05 uM by KiNativ Profiling analysis relative to control. Format: cell-based.

The target in assay [11] is Ribosomal protein S6 kinase alpha-4 (Homo sapiens) (UniProt O75676). As to the kind of experiment: Inhibition of C-terminal RPS6KA4 kinase domain 2 (unknown origin) at 10 uM by Ambit Kinomescan binding assay; values are per cent of control.
Assay [12] addresses Serine/threonine-protein kinase ATR (Homo sapiens) (UniProt Q13535). Description: Inhibition of ATR in human Huh-7 cell lysate at 1 uM by KiNativ Profiling analysis relative to control. Format: subcellular.
The target of assay [13] is Epidermal growth factor receptor (Homo sapiens) (UniProt P00533). Description: Inhibition of EGFR ACT labeling site in human Huh-7 cell lysate at 1 uM by KiNativ Profiling analysis relative to control. Format: subcellular.
Sequence of Epidermal growth factor receptor (Homo sapiens) (P00533 whole entry): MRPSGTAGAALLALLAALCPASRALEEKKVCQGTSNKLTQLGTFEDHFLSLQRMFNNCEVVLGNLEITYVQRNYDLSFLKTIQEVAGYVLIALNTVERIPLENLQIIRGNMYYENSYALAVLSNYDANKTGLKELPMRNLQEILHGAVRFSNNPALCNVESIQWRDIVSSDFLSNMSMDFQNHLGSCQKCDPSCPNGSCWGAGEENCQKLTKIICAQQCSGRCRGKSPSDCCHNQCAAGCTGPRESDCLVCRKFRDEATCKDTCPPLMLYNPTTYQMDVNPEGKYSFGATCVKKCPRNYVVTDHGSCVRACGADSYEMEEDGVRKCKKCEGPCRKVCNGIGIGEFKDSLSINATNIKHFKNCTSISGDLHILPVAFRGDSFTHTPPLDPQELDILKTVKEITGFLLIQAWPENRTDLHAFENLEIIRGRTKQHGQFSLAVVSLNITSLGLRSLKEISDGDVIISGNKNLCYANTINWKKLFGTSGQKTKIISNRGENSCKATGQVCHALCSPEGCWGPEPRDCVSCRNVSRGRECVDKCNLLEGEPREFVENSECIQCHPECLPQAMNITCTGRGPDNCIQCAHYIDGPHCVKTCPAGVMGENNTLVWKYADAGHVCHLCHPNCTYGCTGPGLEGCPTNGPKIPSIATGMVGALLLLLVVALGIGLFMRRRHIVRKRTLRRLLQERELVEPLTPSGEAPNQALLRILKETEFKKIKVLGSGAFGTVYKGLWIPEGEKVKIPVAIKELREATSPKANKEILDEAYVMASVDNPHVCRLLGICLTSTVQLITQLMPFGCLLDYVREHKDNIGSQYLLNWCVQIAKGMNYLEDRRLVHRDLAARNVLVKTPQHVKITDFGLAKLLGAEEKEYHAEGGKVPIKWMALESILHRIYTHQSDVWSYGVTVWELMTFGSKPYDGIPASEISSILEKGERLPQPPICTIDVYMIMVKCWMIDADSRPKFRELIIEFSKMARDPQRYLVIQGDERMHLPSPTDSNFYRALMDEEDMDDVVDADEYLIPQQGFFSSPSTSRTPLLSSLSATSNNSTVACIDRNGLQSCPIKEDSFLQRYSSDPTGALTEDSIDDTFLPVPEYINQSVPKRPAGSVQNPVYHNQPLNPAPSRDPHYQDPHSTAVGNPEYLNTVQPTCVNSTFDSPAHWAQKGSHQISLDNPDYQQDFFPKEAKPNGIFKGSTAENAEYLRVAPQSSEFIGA
Assay [14] deals with Dual specificity mitogen-activated protein kinase kinase 1 (Homo sapiens) (UniProt Q02750). Description: Inhibition of MAP2K1 Lys2 labeling site harbouring DVKPSNILVNSR in human Huh-7 cell lysate at 1 uM by KiNativ Profiling analysis relative to control. The format is subcellular.
Sequence of Dual specificity mitogen-activated protein kinase kinase 1 (Homo sapiens) (Q02750 whole entry): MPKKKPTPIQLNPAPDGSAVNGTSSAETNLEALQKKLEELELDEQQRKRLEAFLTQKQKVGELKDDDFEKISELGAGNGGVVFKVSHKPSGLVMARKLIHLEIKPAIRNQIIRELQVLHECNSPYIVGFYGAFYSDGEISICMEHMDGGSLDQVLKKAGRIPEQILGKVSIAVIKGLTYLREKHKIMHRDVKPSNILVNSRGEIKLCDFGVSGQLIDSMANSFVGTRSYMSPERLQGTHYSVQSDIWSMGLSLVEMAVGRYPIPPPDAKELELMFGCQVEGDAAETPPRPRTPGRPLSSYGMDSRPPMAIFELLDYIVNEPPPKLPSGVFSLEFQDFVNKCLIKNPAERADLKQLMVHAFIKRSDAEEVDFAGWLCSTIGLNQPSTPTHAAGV
The target of assay [15] is T2, Phosphatidylinositol 5-phosphate 4-kinase type-2 beta (Homo sapiens) (UniProt P78356).
T2 sequence (whole entry): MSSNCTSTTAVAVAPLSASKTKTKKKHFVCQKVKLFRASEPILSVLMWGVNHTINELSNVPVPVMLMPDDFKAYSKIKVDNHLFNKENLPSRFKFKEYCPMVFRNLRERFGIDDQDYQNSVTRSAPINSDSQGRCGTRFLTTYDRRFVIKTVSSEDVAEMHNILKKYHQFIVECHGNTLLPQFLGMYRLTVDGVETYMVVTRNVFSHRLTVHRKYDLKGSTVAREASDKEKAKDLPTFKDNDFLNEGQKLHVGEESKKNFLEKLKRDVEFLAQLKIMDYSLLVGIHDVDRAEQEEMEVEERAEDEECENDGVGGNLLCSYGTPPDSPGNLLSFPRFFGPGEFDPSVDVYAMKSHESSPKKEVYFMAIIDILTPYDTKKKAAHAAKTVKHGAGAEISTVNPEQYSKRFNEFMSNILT
Description: Inhibition of PIP4K2B ATP labeling site harbouring TVKHGAGAEISTVNPEQYSK in human Huh-7 cell lysate at 1 uM by KiNativ Profiling analysis relative to control. Format: subcellular.

Assay [16] has as its target Serine/threonine-protein kinase PLK1 (Homo sapiens) (UniProt P53350). Description: Inhibition of PLK1 Lys2 labeling site in human Huh-7 cells at 1 uM by KiNativ Profiling analysis relative to control. The format is cell-based.

Active and inactive are the calls of the source. The calls are words filed in the database; no cut-off is given here.

Sequence of Casein kinase I isoform epsilon (Homo sapiens) (P49674 whole entry, looked up, canonical isoform): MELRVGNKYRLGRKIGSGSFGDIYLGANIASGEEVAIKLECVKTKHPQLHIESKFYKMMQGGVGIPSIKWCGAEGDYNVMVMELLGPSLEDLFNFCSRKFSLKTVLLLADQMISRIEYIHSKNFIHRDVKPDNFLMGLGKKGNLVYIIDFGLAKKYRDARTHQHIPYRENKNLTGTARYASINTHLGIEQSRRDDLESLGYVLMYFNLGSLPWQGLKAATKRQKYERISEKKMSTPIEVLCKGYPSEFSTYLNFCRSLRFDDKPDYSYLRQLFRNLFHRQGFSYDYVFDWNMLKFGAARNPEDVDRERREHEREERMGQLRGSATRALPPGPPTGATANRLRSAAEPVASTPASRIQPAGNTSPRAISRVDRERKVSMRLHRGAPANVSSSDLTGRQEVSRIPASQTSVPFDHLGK
Sequence of Wee1-like protein kinase (Homo sapiens) (P30291 whole entry, looked up): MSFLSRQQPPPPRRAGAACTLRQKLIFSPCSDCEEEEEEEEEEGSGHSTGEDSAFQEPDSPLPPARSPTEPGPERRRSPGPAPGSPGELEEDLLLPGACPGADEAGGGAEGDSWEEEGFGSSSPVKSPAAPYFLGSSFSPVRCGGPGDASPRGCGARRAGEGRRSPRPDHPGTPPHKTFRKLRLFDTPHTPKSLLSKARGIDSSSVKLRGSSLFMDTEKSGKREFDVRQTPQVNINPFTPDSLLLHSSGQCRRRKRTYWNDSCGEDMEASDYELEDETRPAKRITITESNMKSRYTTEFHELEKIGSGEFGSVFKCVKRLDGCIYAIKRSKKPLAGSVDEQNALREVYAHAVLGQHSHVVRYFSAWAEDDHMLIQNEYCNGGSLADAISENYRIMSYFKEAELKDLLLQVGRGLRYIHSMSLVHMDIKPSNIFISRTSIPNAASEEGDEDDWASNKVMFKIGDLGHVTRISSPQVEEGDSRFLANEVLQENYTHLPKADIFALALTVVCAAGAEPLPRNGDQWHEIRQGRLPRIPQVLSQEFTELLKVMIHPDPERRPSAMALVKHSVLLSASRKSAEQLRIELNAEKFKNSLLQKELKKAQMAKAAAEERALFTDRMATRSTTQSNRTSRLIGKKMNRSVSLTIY
Sequence of Cyclin-dependent kinase-like 1 (Homo sapiens) (Q00532 whole entry): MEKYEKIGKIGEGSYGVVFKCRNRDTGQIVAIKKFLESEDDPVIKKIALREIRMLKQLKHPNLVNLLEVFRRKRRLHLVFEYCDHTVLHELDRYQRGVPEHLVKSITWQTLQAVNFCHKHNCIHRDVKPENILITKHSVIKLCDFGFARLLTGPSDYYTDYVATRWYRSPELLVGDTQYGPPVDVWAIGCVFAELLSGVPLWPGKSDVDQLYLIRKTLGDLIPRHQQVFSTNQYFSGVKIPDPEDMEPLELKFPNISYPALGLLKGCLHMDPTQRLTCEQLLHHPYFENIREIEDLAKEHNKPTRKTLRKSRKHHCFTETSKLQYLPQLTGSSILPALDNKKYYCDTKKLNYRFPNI

Turning to `CCN1CCN(Cc2ccc(NC(=O)c3ccc(C)c(/C=C/c4cnc5[nH]ccc5c4OC)c3)cc2C(F)(F)F)CC1`, the inhibition in [1] was 18.3%; in assay [2] it was -9.6%; in assay [3], 19.2%; in assay [6] it was -4.7%. The residual activity in assay [4] and in assay [5] was 100% in each case.
Regarding `CCN1CCN(Cc2ccc(NC(=O)c3ccc(C)c(Oc4ccnc5[nH]ccc45)c3)cc2C(F)(F)F)CC1`, the inhibition entry in assay [7] and in assay [8] was “inactive” each time. Also, the inhibition in [9] was 82.3%; in assay [10] it was -2.6%. In addition, in [11], the percent of control was found to be 4.7%.
Turning to `CNc1cc(Oc2cc(C(=O)Nc3cc(N4CCN(C)CC4)cc(C(F)(F)F)c3)ccc2C)ncn1`, the inhibition in [12] is 22.6%; in assay [13] it was -3.2%; in assay [14], 15.6%; in assay [15], -5.4%; in assay [16], 1.3%.

The inhibition is the drop in the measured response relative to a control, in per cent. A word on the residual activity: it is the signal under treatment as a percentage of the control signal.
